Each block holds one molecule with its values, some of them ahead of it.
How the values were obtained:
A549 [1] = experiment: Anticancer activity against human A549 cells assessed as inhibition of cell growth; format: functional, cell-based
PC-3 = experiment: Anticancer activity against human PC-3 cells assessed as inhibition of cell growth; format: functional, cell-based
KB 3-1 = experiment: Anticancer activity against human KB 3-1 cells assessed as inhibition in cell growth; format: functional, cell-based
P388 [2] = experiment: Anticancer activity against mouse P388 cells assessed as inhibition of cell growth; format: functional, cell-based
HT-29 [3] = experiment: Anticancer activity against human HT-29 cells assessed as inhibition of cell growth; format: functional, cell-based
P388 [4] = experiment: Anticancer activity against mouse P388 cells assessed as reduction in cell growth; format: functional, cell-based
HCT-116 [5] = experiment: Anticancer activity against human HCT-116 cells assessed as inhibition of cell growth by MTS assay; format: functional, cell-based
MCF7 [6] = experiment: Anticancer activity against human MCF7 cells assessed as inhibition of cell growth incubated for 24 hrs by MTT assay; format: functional, cell-based; details: MCF7, 24 h
A549 [7] = experiment: Anticancer activity against human A549 cells assessed as inhibition of cell growth incubated for 24 hrs by MTT assay; format: functional, cell-based; details: A549, 24 h
HCT-116 [8] = experiment: Anticancer activity against human HCT-116 cells assessed as inhibition of cell growth incubated for 72 hrs by MTT assay; format: functional, cell-based; details: HCT-116, 72 h
HeLa [9] = experiment: Anticancer activity against human HeLa cells assessed as inhibition of cell growth; format: functional, cell-based
HepG2 [10] = experiment: Anticancer activity against human HepG2 cells assessed as inhibition of cell growth; format: functional, cell-based
Daoy = experiment: Anticancer activity against human Daoy cells assessed as inhibition of cell growth; format: functional, cell-based
HepG2 [11] = experiment: Anticancer activity against human HepG2 cells assessed as inhibition of cell growth incubated for 48 hrs by crystal violet staining based microplate reader analysis; format: functional; details: HepG2, 48 h
MDA-MB-231 [12] = experiment: Anticancer activity against human MDA-MB-231 cells assessed as cell viability measured after 24 hrs by MTT assay; format: functional, cell-based; details: MDA-MB-231, 24 h
HeLa [13] = experiment: Antiproliferative activity against human HeLa cells assessed as cell viability measured after 24 hrs by MTT assay; format: functional, cell-based
HCT-116 [14] = experiment: Antiproliferative activity against human HCT-116 cells assessed as cell viability measured after 24 hrs by MTT assay; format: functional, cell-based; details: HCT-116, 24 h
P388 [15] = experiment: Anticancer activity against mouse P388 cells assessed as inhibition of cell growth by dilution assay; format: functional, cell-based
A549 [16] = experiment: Anticancer activity against human A549 cells assessed as inhibition of cell growth by dilution assay; format: functional, cell-based
HT-29 [17] = experiment: Anticancer activity against human HT-29 cells assessed as inhibition of cell growth by dilution assay; format: functional, cell-based
MDA-MB-231 [18] = experiment: Antiproliferative activity against human MDA-MB-231 cells assessed as cell growth inhibition incubated for 72 hrs by SRB assay; format: functional, cell-based; details: MDA-MB-231, 72 h
A549 [19] = experiment: Antiproliferative activity against human A549 cells assessed as cell growth inhibition incubated for 72 hrs by SRB assay; format: functional, cell-based; details: A549, 72 h
HT-29 [20] = experiment: Antiproliferative activity against human HT-29 cells assessed as cell growth inhibition incubated for 72 hrs by SRB assay; format: functional, cell-based; details: HT-29, 72 h
A549 [21] = experiment: Anticancer activity against human A549 cells assessed as cell growth inhibition; format: functional, cell-based
MCF7 [22] = experiment: Anticancer activity against human MCF7 cells assessed as inhibition of cell growth; format: functional, cell-based
HeLa [23] = experiment: Anticancer activity against human HeLa cells assessed as inhibition of cell growth incubated for 24 hrs by MTT assay; format: functional, cell-based
P388 [24] = experiment: Anticancer activity against mouse P388 cells assessed as cell growth inhibition; format: functional, cell-based
HT-29 [25] = experiment: Anticancer activity against human HT-29 cells assessed as cell growth inhibition; format: functional, cell-based
SK-MEL-28 = experiment: Anticancer activity against human MEL-28 cells assessed as cell growth inhibition; format: functional, cell-based

IC50 (A549 [1]): 8900 nM
IC50 (PC-3): 7900 nM
IC50 (KB 3-1): 4.8 nM
Compound: CC1=CCC2C(CC[C@@]2(C)O)C(C)(C)[C@@H]1CC[C@H]1[C@@](C)(O)CCC2OC(C)(C)[C@H](O)CC[C@@]21C (stereo not given in full)

Compound: CC1=C(CCC(C)(O)/C=C/C[C@@]2(C)CC[C@H]([C@@H](C)C(=O)O)OO2)C(C)(C)CCC1 (stereo not given in full)
IC50 (A549 [1]): > 2.4 nM
IC50 (P388 [2]): > 2.4 nM
IC50 (HT-29 [3]): > 2.4 nM

IC50 (P388 [4]): < 1.6 nM
Compound: CC(=O)Oc1c(O)ccc(O)c1C[C@]1(C)[C@@H](C)CC[C@]2(C)C(C)=CCC[C@@H]12

Compound: CO[C@H]1C[C@H](CC[C@H](C)[C@H](O)[C@H](C)[C@H]2OC(=O)/C=C/C(C)=C/C[C@@H](O)C[C@H]3C=CC[C@@H](C[C@H](OC)[C@@H](C)[C@@H](O)C[C@@H](O)[C@H](C)[C@@H]([C@@H](C)[C@@H](O)[C@@H](C)CC[C@H]4C[C@H](OC)C[C@H](C)O4)OC(=O)/C(C)=C/C[C@H](O)C[C@@H]4C=CC[C@@H](C[C@H](OC)[C@@H](C)[C@@H](O)C[C@@H](O)[C@@H]2C)O4)O3)O[C@@H](C)C1
IC50 (HCT-116 [5]): 365 nM

IC50 (MCF7 [6]): 18000 nM
IC50 (A549 [7]): 24200 nM
Compound: C#C/C=C\CCCCCCCCCCC#CCCC(=O)NCCc1ccccc1

Compound: CC(C)[C@@H](C)/C=C/[C@@H](C)[C@H]1CC[C@@]23O[C@@]24C(=O)C[C@H]2CC(=O)CC[C@]2(C)[C@H]4CC[C@]13C
IC50 (HCT-116 [8]): 45000 nM

IC50 (HeLa [9]): 53.5 nM
IC50 (HepG2 [10]): 41.2 nM
Compound: O=C(O)CCCC#CC#C/C=C/CCCCCCC=C(Br)Br
IC50 (Daoy): 35.6 nM

Compound: C=C(CCC[C@@]1(C)CC[C@H]([C@@H](C)C(=O)OC)OO1)CCC1(O)C(=C)CCCC1(C)C (stereo not given in full)
IC50 (A549 [1]): > 2.4 nM
IC50 (P388 [2]): > 2.4 nM
IC50 (HT-29 [3]): > 2.4 nM

IC50 (HepG2 [11]): 6.9 nM
Compound: CC1=CCC2C(CC[C@@]2(C)O)C(C)(C)[C@@H]1CC[C@H]1[C@@](C)(O)CCC2OC(C)(C)C(=O)CC[C@@]21C (stereo not given in full)

IC50 (MDA-MB-231 [12]): 13200 nM
IC50 (HeLa [13]): 17600 nM
IC50 (HCT-116 [14]): 7000 nM
Compound: COC1=C(Br)C[C@@]2(OC=C1Br)ON=C(C(=O)NCCCOc1c(Br)cc(C(O)CNC(N)=O)cc1Br)[C@H]2O (stereo not given in full)

IC50 (P388 [15]): 2.2 nM
IC50 (A549 [16]): 2.2 nM
IC50 (HT-29 [17]): > 2.2 nM
Compound: CC1(C)CCC[C@]2(C)[C@H]3C[C@@H](O)[C@]4(C)c5cocc5C(=O)C[C@H]4[C@]3(C)CC[C@@H]12 [SALMAHYRTISOL B]

IC50 (MDA-MB-231 [18]): 25000 nM
IC50 (A549 [19]): 30000 nM
IC50 (HT-29 [20]): 28000 nM
Compound: O=C(O)c1cnc(-c2c[nH]c3cc(O)ccc23)c2[nH]c3ccc(O)cc3c12

IC50 (P388 [15]): 2.2 nM
IC50 (A549 [16]): 2.2 nM
IC50 (HT-29 [17]): > 2.2 nM
Compound: CC(=O)OC[C@]1(C)CCC[C@]2(C)[C@H]3C[C@@H](O)[C@]4(C)C5=C(CC[C@H]4[C@]3(C)CC[C@@H]12)COC5=O

IC50 (HCT-116 [5]): 5.6 nM
Compound: CO[C@@H]1C[C@H](C)O[C@@H](C(O)C[C@H](C)[C@H](O)[C@H](C)[C@H]2OC(=O)/C=C/C(C)=C/C[C@H](O)C[C@H]3C=CC[C@@H](C[C@H](OC)[C@@H](C)[C@@H](O)C[C@@H](O)[C@H](C)[C@@H]([C@@H](C)[C@@H](O)[C@@H](C)CC[C@H]4C[C@H](OC)C[C@H](C)O4)OC(=O)/C=C/C(C)=C/C[C@H](O)C[C@@H]4C=CC[C@@H](C[C@H](OC)[C@@H](C)[C@@H](O)C[C@@H](O)[C@@H]2C)O4)O3)C1 (stereo not given in full)

Compound: CC(C)[C@@H](C)/C=C/[C@@H](C)[C@H]1CC[C@H]2C3=C(CC[C@]12C)[C@@]1(C)CC[C@H](O)CC1=CC3=O
IC50 (HCT-116 [8]): 40000 nM

Compound: CC1=C(CC/C(C)=C/CC[C@@]2(C)CC[C@H]([C@@H](C)C(=O)O)OO2)C(C)(C)CCC1
IC50 (A549 [21]): 3000 nM
IC50 (MCF7 [22]): 7000 nM
IC50 (PC-3): 8000 nM

IC50 (MCF7 [6]): 34100 nM
IC50 (A549 [7]): 25900 nM
IC50 (HeLa [23]): 17400 nM
Compound: C#C/C=C\CCCCCCCCCCC#CCCC(=O)NCCc1c[nH]c2ccccc12

IC50 (P388 [24]): 240 nM
IC50 (A549 [21]): 120 nM
IC50 (HT-29 [25]): 120 nM
IC50 (SK-MEL-28): 240 nM
Compound: C=C1CCC[C@@H]2[C@@](C)(CC[C@@]3(C)CCn4cnc5ncnc(c54)N3O)[C@H](C)CC[C@]12C

IC50 (HeLa [9]): 138 nM
Compound: O=C(O)CCCC#C/C=C/CC/C=C/C#C/C=C/Br
IC50 (Daoy): 76.5 nM

IC50 (P388 [4]): > 54 nM
Compound: COC1=CC(=O)C(C[C@]2(C)[C@@H](C)CC[C@]3(C)C(C)=CCC[C@@H]23)=C(O)C1=O
